Reference: US20250100962A1 (CITY OF HOPE, priority 2023, published 2025)

Experiments:
C2C12 myoblasts [1] = test: EdU proliferation assay in C2C12 myoblasts; format: cell-based, mouse
Protocol: Cells were seeded at 0.2×10^5 concentration and treated with desired compounds and controls overnight. The seeding density was decided after trying several densities and choosing the one that after 24 h lead to visible, not clumping cells. 10 μM 5-ethynyl-2′-deoxyuridine (EdU) incorporation was performed during 4 h according to the kit protocol and detected by Click-iT Imaging Kit with Alexa 488 Fluorophore (Invitrogen). 1 μg/ml 4′,6′-diamidine-2′-phenylindole dihydrochloride (DAPI) was used to label for nuclei. Total number of EdU+ cells was counted from 8 representative fields at 20× and the rate of proliferation was calculated as percentage of EdU+/DAPI.

C3H10T1/2 cells = test: Adipogenic differentiation of C3H10T1/2 mesenchymal precursors; format: cell-based; conditions: for adipogenic factors C/EBPα and PPARγ / mature adipocyte marker expression (FASN): 1 μM, immunoblot; for adipogenic factors C/EBPα and PPARγ: day 7 differentiated; for mature adipocyte formation / lipid accumulation: day 8, oil-red-O and Bodipy
Protocol: Cell culture and adipogenic differentiation. 3T3-L1 and C3H10T1/2 cell lines were obtained from ATCC, and maintained in DMEM with 10% fetal bovine serum supplemented with 1% Penicillin-Streptomycin-Glutamine, as previously described (Nam, Guo, Chatterjee et al., 2015; Liu, Xiong, Nam et al., 2020). 0.25% Trypsin was used for digestion and passaging of these cell lines. For adipogenic differentiation induction media (1.6 μM insulin, 1 μM dexamethasone, 0.5 mM IBMX, 0.5 uM Rosiglitazone) was used for 3 days followed by maintenance medium with insulin for 3 days for 3T3-L1 and 5 days for C3H10T1/2 cells, as previously described (Liu et al., 2020).
Oil-red-O and Bodipy staining. These stainings for neutral lipids during adipogenic differentiation were performed as previously described (Nam et al., 2015). Briefly, for oil-red-O staining, cells were fixed using 10% formalin and incubated using 0.5% oil-red-O solution for 1 hour. Bodipy 493/503 was used at 1 mg/L together with DAPI for 15 minutes, following 4% paraformaldehyde fixation and permeabilization with 0.2% triton-X100.
Immunoblot analysis. Total protein was extracted using lysis buffer containing 3% NaCl, 5% Tris-HCl, 10% Glycerol, 0.5% Triton X-10 in MilliQ water with protease inhibitor cocktail. 20-40 μg of total protein was resolved on 10% SDS-PAGE gels followed by immunoblotting on PVDF membranes (Bio-rad). Membranes were developed by chemiluminescence (SuperSignal West Pico, Pierce Biotechnology) and signals were obtained via a chemiluminescence imager (Amersham Imager 680, GE Biosciences).

Wnt signaling activity = test: TOPFlash luciferase reporter (Wnt activity) in U2OS cells; format: cell-based; conditions: for TOPFlash reporter activity, Wnt3a-containing media: Wnt3a stimulated; for TOPFlash Wnt activity, basal condition: without Wnt stimulation
Protocol: FIGS. 20A-20F. Effect of CM002 on activating circadian clock function. […] We tested the effect of CM002 from 0.2-5 μM on clock modulation in […] cells containing Per2::dLuc reporter using Lumicycle by monitoring chemiluminescence recordings for 6 days. The results were presented using the average original luminescence (FIG. 20A) or baseline-adjusted presentation (FIG. 20B). […] Based on the known clock effect on stimulating Wnt signaling activity, we used a TCF4 promoter-driven TOPFlash luciferase reporter to determine the effect of CM002 on Wnt pathway and compared this activity with CHX.
TOPFlash luciferase reporter assay. M50 Super 8×TOPFlash luciferase reporter containing Wnt-responsive TCF bindings sites was a gift from Randall Moon (Veeman, Slusarski, Kaykas et al., 2003) obtained from Addgene (Addgene plasmid #12456). Cells were seeded and grown overnight, and cell transfection was performed at 90% confluency. 24 hours following transfection, cells were treated using 10% Wnt3a conditioned media obtained from L Wnt-3A cell line (ATCC CRL-2647) to induce luciferase activity. Luciferase activity was assayed using Dual-Luciferase Reporter Assay Kit (Promega) in 96-well black plates. TOPFlash luciferase reporter luminescence was measured on microplate reader (TECAN infinite M200pro) and normalized to control FOPFlash activity, as previously described (Guo et al., 2012). The mean and standard deviation values were calculated for each well and graphed.

C2C12 myoblasts [2] = test: Myogenic differentiation of C2C12 myoblasts; format: cell-based, mouse; conditions: for MyHC-positive mature myotubes (immunofluorescence): C2C12 differentiation day 5-7
Protocol: Pictures were taken every day to monitor morphological progression, and proteins and RNA samples were collected on days indicated.
C2C12, C2C12 Bmal1 KD and C2C12 Scrambled control (SC) myoblasts were seeded at Day −1 at 2×105 concentration on 12 wells plates and maintained in 10% FBS until 80% confluency and treated with indicated compounds and controls in 2% FBS DMEM media to induce differentiation on Day 0. On days 3, 5 and 7 cells were fixed with 4% paraformaldehyde (from 37% Formaldehyde Baker Analyzed) and kept at 4° C. in PBS. Cells were permeabilized with Permeabilization solution of 0.5% Triton X-100 (Fisher Bioreagents CN: 9002-93-1) in PBS and blocked with Blocking solution of 1% BSA (Fisher Bioreagents CN:9048-46-8) in PBS. Primary antibodies were diluted in Washing solution of 0.01% Triton X-100 (Fisher Bioreagents CN: 9002-93-1) in PBS and left overnight at 4° C. Cells were then incubated with secondary antibodies in Washing solution at room temperature for 1 h. 1 μg/ml 4′,6′-diamidine-2′-phenylindole dihydrochloride (DAPI) was used to label for nuclei. […] To quantify the proliferation of myoblast, when needed, cells were treated with 1 μg/ml of EdU for 3 h before fixation. Detection of EdU was performed with Click-iT EdU Alexa Fluor 488 Imaging Kit before applying the immunofluorescence staining as described above.

[3] = test system: primary bone marrow-derived macrophages; test: NLRP3 inflammasome and CHOP expression in primary bone marrow-derived macrophages; format: cell-based; conditions: for NLRP3 and CHOP with LPS stimulation: LPS challenge; for NLRP3 expression, basal unstimulated: immunoblot
Source text: FIGS. 46A-46D. […] Chronic inflammation in dystrophic muscle, due to the persistent muscle damage with sustained degeneration and regeneration cycles, is a significant component of the pathogenic characteristics of muscular dystrophy contributing to muscle wasting. We thus determined potential ameliorative effects of CHX and CM002 on muscle inflammation in the mdx mice.

Row | SMILES | adipogenic factors C/EBPα and PPARγ (C3H10T1/2 cells) | mature adipocyte marker expression (FASN) (C3H10T1/2 cells) | mature adipocyte formation / lipid accumulation (C3H10T1/2 cells) | TOPFlash reporter activity, Wnt3a-containing media (Wnt signaling activity) | TOPFlash Wnt activity, basal condition (Wnt signaling activity) | MyHC-positive mature myotubes (immunofluorescence) (C2C12 myoblasts [2]) | NLRP3 and CHOP with LPS stimulation [3] | NLRP3 expression, basal unstimulated [3] | further results
1 | [H]/N=C(\N/C(=N/[H])NCCCCCCNC(=N)NC(=N)Nc1ccc(Cl)cc1)Nc1ccc(Cl)cc1 [CHX, chlorhexidine] | significantly impaired levels of adipogenic factors | attenuated expression of fatty acid synthase | attenuated mature adipocyte formation | significantly induced | augmented Wnt activity at basal condition | increased numbers of MyHC-positive mature myotubes | failed to inhibit NLRP3 inflammasome and displayed stimulatory effect at high concentrations accompanied with CHOP induction | able to attenuate its expression | increase of proliferation (EdU incorporation) (C2C12 myoblasts [1]; both concentrations tested, 24 hours): ~40%; adipogenic maturation, early stage (C3H10T1/2 cells; 5 days after adipogenic induction, oil-red-O): dose-dependent inhibition of adipogenic maturation; myotube hypertrophy (C2C12 myoblasts [2]; 0.5 μM, Day 7): induced notable myotube hypertrophy; morphological progression of myotube formation (C2C12 myoblasts [2]; 2% serum differentiation, phase-contrast): markedly accelerated the morphological progression of myotube formation; induction of Myf5 and eMyhc in Bmal1-deficient myoblasts (C2C12 myoblasts [2]; BMKD myoblasts): loss of CHX induction of Myf5 and eMyhc; differentiation of Bmal1 shRNA (BMKD) myoblasts (C2C12 myoblasts [2]; BMKD vs SC): failed to augment BMKD myoblast differentiation; effective concentration range, pro-myogenic activities (C2C12 myoblasts [2]; C2C12 myoblasts): 0.2 to 0.5 µM; toxicity during differentiation (C2C12 myoblasts [2]; CHX at 2 and 5 μM): appeared to be toxic to myoblasts with cell death during differentiation; Myf5, Myod1 and eMyhc expressions (C2C12 myoblasts [2]; RT-qPCR): significantly induced by 0.5 μM CHX with a tendency toward higher expression 0.2 μM; Myf5 and Myogenin proteins (C2C12 myoblasts [2]; day 3 and day 5 of differentiation, immunoblot): early induction of myogenic factors Myf5 and Myogenin proteins; concentration inducing CHOP (ER stress marker) [3]: ≥ 1000 nM
2 | CCCCCC/C=N/C(=N)NC(=N)Nc1ccc(Cl)cc1 [CM002] | strong inhibition of adipogenic factors C/EBPα and PPARγ | substantially lower | markedly suppressed their differentiation in a dose-dependent manner | 0.1 μM of CM002 comparable to that of CHX induction at 1 μM | augmented Wnt activity at basal condition | enhanced differentiation induced by 0.5 μM CM002 than CHX with strongest effect on promoting myotube formation observed at CM002 at 1 μM | suppressed NLRP3 in the presence of LPS without inducing CHOP | able to attenuate its expression | proliferation (EdU incorporation) (C2C12 myoblasts [1]; 4 hours, 0.5 and 1 μM): significantly increased proliferation of C2C12 myoblasts; Myogenesis (C2C12 myoblasts [2]; Table 1 summary of CHX analogs): Enhanced
